Experimental data taken from ChEMBL document CHEMBL1122753, “Interaction of N4-hydroxy-2'-deoxycytidylic acid with thymidylate synthetase” (J Med Chem, 1984).
Calls of active or inactive are those of the source. The rule behind the calls is not given here.

Experiments:
Thymidylate synthase [1] = molecular target: T1, Thymidylate synthase (Lactobacillus casei, UniProt P00469); test: The apparent association constant (Ki) with dTMP synthetase enzyme from chick embryo in the absence of CH2-H4 folate was evaluated; design: species or system Lacticaseibacillus casei
T1 sequence (P00469 whole entry): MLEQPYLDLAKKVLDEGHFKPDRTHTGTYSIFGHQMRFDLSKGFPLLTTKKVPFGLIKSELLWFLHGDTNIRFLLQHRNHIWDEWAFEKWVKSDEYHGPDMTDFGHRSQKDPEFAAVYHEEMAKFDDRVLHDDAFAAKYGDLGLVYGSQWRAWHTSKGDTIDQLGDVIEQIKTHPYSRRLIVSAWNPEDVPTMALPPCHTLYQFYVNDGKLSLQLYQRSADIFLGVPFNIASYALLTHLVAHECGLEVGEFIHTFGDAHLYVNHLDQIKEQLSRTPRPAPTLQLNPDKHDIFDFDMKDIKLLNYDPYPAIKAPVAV

Thymidylate synthase [2] = molecular target: T2, Thymidylate synthase (Homo sapiens, UniProt P04818); test: Compound (4.5 uM) was evaluated for the percent binding to the excess dTMP synthetase (3.9 uM and 7.8 uM sites) enzyme from chick embryo, […] of CH2-H4 folate. This complex was incubated 25 degrees Celsius for 2 hours.; details: Gallus gallus; target entry is the homologue from another species
Target sequence in this assay (P04818 2-313 limits assumed): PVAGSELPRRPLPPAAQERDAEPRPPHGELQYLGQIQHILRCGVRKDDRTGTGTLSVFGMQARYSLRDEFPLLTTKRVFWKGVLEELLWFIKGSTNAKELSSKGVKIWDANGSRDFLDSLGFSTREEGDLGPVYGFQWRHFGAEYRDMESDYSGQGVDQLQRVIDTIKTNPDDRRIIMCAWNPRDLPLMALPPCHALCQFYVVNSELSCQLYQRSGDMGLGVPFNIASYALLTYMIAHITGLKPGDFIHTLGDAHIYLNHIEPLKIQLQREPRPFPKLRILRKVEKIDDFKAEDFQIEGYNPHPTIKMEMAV

Thymidylate synthase [3] = molecular target: T2, Thymidylate synthase; test: Compound was evaluated for time-dependent loss of activity with use of 15 nM of dTMP synthetase enzyme from chick embryo in the presence of […] of CH2-H4 folate at about 20 seconds; assay type: functional; details: Gallus gallus; target entry is the homologue from another species
Target sequence in this assay (P04818 2-313 limits assumed): as above

Thymidylate synthase [4] = molecular target: T2, Thymidylate synthase; test: Compound was evaluated for the dissociation of the radiolabeled N4-HOdCMP by competitive binding to the excess dTMP synthetase; Active; details: Gallus gallus
Target sequence in this assay (P04818 2-313 limits assumed): as above

Thymidylate synthase [5] = molecular target: T2, Thymidylate synthase; test: The apparent association constant (Ki) with dTMP synthetase enzyme from chick embryo in the absence of CH2-H4 folate was evaluated; Active; design: species or system Gallus gallus; details: target entry is the homologue from another species
Target sequence in this assay (P04818 whole entry): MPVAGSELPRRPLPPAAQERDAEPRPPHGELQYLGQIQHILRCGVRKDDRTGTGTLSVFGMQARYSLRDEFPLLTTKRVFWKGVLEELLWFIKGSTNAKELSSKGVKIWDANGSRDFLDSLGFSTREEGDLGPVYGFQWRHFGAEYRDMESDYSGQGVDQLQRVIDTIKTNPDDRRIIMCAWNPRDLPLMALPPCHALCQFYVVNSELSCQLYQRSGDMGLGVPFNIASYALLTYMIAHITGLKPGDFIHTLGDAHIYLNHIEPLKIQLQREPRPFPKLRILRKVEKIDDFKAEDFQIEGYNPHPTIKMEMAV

Thymidylate synthase [6] = molecular target: T2, Thymidylate synthase; test: The apparent association constant (Ki) with dTMP synthetase enzyme from chick embryo in the absence of CH2-H4 folate was evaluated using conventional spectrophotometric assay; Active; design: species or system Gallus gallus
Target sequence in this assay (P04818 whole entry): as above

O=c1nc(NO)ccn1[C@H]1C[C@H](O)[C@@H](COP(=O)(O)O)O1
Ki (Thymidylate synthase [1]): 8 µM | Binding (Thymidylate synthase [2]): 90% | Loss of activity (Thymidylate synthase [3]): 50% | Dissociation (Thymidylate synthase [4]): Active

Cc1cn([C@H]2C[C@H](O)[C@@H](COP(=O)(O)O)O2)c(=O)[nH]c1=O [THYMIDINE MONOPHOSPHATE]
Ki (Thymidylate synthase [5]): Active

O=c1ccn([C@H]2C[C@H](O)[C@@H](COP(=O)(O)O)O2)c(=O)[nH]1 [DEOXYURIDINE MONOPHOSPHATE]
Ki (Thymidylate synthase [6]): Active
